Assays:
[1] = test system: TORC1 (p4EBP1 and pS6) and TORC2 (pPRAS40); experiment: Human skin immunohistochemistry assay (skin biopsies, Phase I trial); format: in vivo
Protocol: Skin tissue was fixed in 10% neutral-buffered formalin solution for 24 hours and then processed and embedded in paraffin block. Sections (4 μm) were cut and mounted onto microscopic slides. Sections were incubated with primary antibodies (p4EBP1, pS6, or pRAS40) overnight and developed using a chromogenic substrate.
(§1) Pharmacodynamic (PD) endpoints were evaluated in surrogate (peripheral blood cells [PBCs], skin) and tumor tissues for the phosphorylation of TORC1-dependent markers (4EBP1/S6), and TORC2-dependent markers (AKT/PRAS40). 50 patients were treated in 3 intermittent dosing regimens; 21 in 6 cohorts ranging 7-40 mg QW, 20 in 5 cohorts ranging 6-20 mg QDx3d QW, and 9 in 3 cohorts ranging 7-13 mg QDxSd QW. […] The MTD for intermittent dosing was not reached. All adverse events (AEs) reported were reversible. The most common (≧20%, n=35) AEs considered possibly related to compound A reported in all 3 dosing regimens included nausea (51%), hyperglycemia (37%), mucosal inflammation (29%), rash (23%), asthenia (23%), vomiting (26%), and diarrhea (20%). The majority of AEs considered possibly related to compound A in any regimen were Grade 1 or 2. The only reported Grade ≧3 AE (≧5%) possibly related to compound A in 3 regimens was lymphopenia (6%). Tables 4-9 show summaries of observed adverse events for various treatment regimens of the invention.

advanced solid tumors = experiment: Phase I clinical trial: preliminary antitumor activity; format: in vivo, human; settings: patients with lung and renal cancer
Protocol: Adult patients with histologically confirmed advanced solid tumors were enrolled in a 3+3 dose escalation Phase I study evaluating 3 intermittent schedules of administration for compound A: QW (once weekly), QD×3d QW (3 days on 4 days off), and QD×5d QW (5 days on 2 days off), in comparison with daily dosing (QD). Safety, maximum tolerated dose (MTD), pharmacokinetics (PK) and preliminary antitumor activity were evaluated.

p4E-BP1 (T37/46) = experiment: Human peripheral blood mono-nucleocyte biomarker assay (Phosflow, Phase I trial); format: in vivo; settings: all dosing regimens
Protocol: A BD Biosciences Phosflow assay was conducted using human peripheral blood cells. Whole blood was lysed and fixed using the provided BD Lyse/Fix buffer and permeabilized with BD Perm III buffer. Peripheral blood cells were isolated and stained using CD33 and CD20 as extracellular markers and p4E-BP1 (T37/46) as the intracellular biomarker. Cell type populations were identified as monocytes (CD33+), granulocytes (CD33 dim), lymphocytes (CD33−), B-cells (CD33−, CD20+) and T &NK cells (CD33−, CD20−) by FACS analysis. The median fluorescense intensity (MFI) of each cell type was analyzed along with the percentage of p4E-BP1 positive cells.
as §1, with “The majority of AEs considered possibly related to compound A in any regimen were Grade 1 or 2. The only reported Grade ≧3 AE (≧5%) possibly related to compound A in 3 regimens was lymphopenia (6%). Tables 4-9 show summaries of observed adverse events for various treatment regimens of the invention.” left out

Structure (SMILES): CC(C)n1nc(-c2ccc3oc(N)nc3c2)c2c(N)ncnc21 [compound A]
- PD (% inhibition, H score) Skin: 4EBP1/PRAS40 ([1]; 10 mg Q5D): 80%
- PD (% inhibition, H score) Skin: 4EBP1/PRAS40 ([1]; 13 mg Q5D): 80%
- PD (% inhibition, H score) Skin: 4EBP1/PRAS40 ([1]; 16 mg Q3D): 80%
- PD (% inhibition, H score) Skin: 4EBP1/PRAS40 ([1]; 20 mg Q3D): 80%
- PD (% inhibition, H score) Skin: 4EBP1/PRAS40 ([1]; 30 mg QW): 80%
- PD (% inhibition, H score) Skin: 4EBP1/PRAS40 ([1]; 40 mg QW): 80%
- pathway inhibition of TORC1 (p4EBP1 and pS6) and TORC2 (pPRAS40) ([1]; skin biopsies): 60-100%
- Preliminary anti-tumor activity (advanced solid tumors): Preliminary anti-tumor activity was seen
- p4EBP1 levels in PBC (p4E-BP1 (T37/46)): Decreases in p4EBP1 levels were seen
